Results as given in patent US8344022B2, “Vaginal health products” (Kimberly-Clark Worldwide, Inc., priority 2004, dated 2013).
Values joined by “and” are separate entries in the source; they are usually repeats but may differ in a detail not shown here. Equal values may be shown once. “Also recorded” adds a separate entry of the source.

Columns and labels:
ME-180 cells = assay: ME-180 cell growth (cell counting) with vitamin E or vitamin A derivatives; assay type: cell-based, human; settings: for effect on ME-180 cell growth: 1 nM, 10 nM and 100 nM; for ME-180 cell growth vs negative control (FIG. 2): 1 μM or 10 μM, two days; for ME-180 cell growth: three days
Procedure: Cell Culture. Human cervical epithelial cells (ME-180, ATCC) were propagated in culture at 37° C. using 5% CO2 in McCoy's 5A media (Invitrogen) with 10% heat-inactivated fetal bovine serum (Invitrogen). Vitamin E was purchased from ICN Biomedicals. Vitamin E stock solutions were made up in absolute ethanol.
ME-180 cells were incubated with vitamin E at various concentrations for three days. At 10 μM vitamin E, ME-180 cell growth was inhibited (data not shown). However, this may be due to the presence of a larger concentration of ethanol (used as a solvent for vitamin E) in the media. […] At 1 μM vitamin E, ME-180 cell growth was enhanced more than the corresponding negative control. At 100 nM vitamin E, cell growth was not effected in comparison to the negative control. Therefore, a concentration of 1 μM vitamin E was used to measure changes in RNA expression over a 24 hour period.
Cell Proliferation of ME-180 Cells. ME-180 cells were incubated with vitamin A derivatives for a period of up to 3 days. ME-180 cells were counted on each day.

human skin keratinocytes = assay: Keratinocyte proliferation, 96-well Cell Titer 96 assay; assay type: cell-based; settings: 1×10^−4 to 1×10^−6 M
Procedure: The proliferative response of these human skin keratinocytes to the test compounds was measured in a 96-well assay system using keratinocyte basal medium (KBM, Clonetics, catalog number CC-3103) as a control. […] In addition, 100 μl of vehicle KBM was added to 5 wells as control. […] The spectrophotometric absorbance of each well was read at 490 nm.

[1] = tested on: collagen production in human skin fibroblast cell line; assay: Collagen production by human skin fibroblasts (Takara EIA MK101); assay type: cell-based; settings: 1×10^−4 to 1×10^−6 M
Procedure: The cells were first grown in a 96-well assay system using Dulbecco's Modified Eagle's Medium (DMEM) with 10% fetal bovine serum (FBS) both purchased from Sigma Chemical Co, St. Louis, Mo. Serum-free DMEM was used as a control.
The assay was done by using the recommended 20 ul of the supernatant from each well of the 96-well plate. Standard buffer and stop solutions were freshly prepared before running the assay. 100 ul of antibody-POD conjugate solution (supplied with the kit) was added into the wells using pre antibody coated 96 well plate (supplied with the kit). 20 ul of standard and test solutions (from the other 96-well plate containing fibroblasts) were added to appropriate wells. Plate was mixed gently, sealed and incubated for three hrs. at 37° C.
After incubation each well was washed carefully four times with PBS buffer (400 ul). All the wells were completely emptied at the end of washing from any liquid.
100 ul of substrate solution (hydrogen peroxide and tetramethylbenzidine in a buffer solution, supplied with the kit) was added to each well and the plate was incubated for 15 minutes. At this point 100 ul of stop solution (freshly prepared 1N H2SO4) was added to each well in the same order as substrate. The plate was gently mixed and absorbance was read at 450 nm.

[2] = tested on: fibronectin production in human skin fibroblast cell line; assay: Fibronectin production by human skin fibroblasts (Takara EIA MK115); assay type: cell-based; settings: all concentrations tested, vs control
Procedure: The cells were first grown in a 96-well assay system using Dulbecco's Modified Eagle's Medium (DMEM) with 10% fetal bovine serum (FBS) both purchased from Sigma Chemical Co, St. Louis, Mo. Serum-free DMEM was used as a control. […] The fibronectin assay was performed using the recommended 100 μl of the supernatant from each well of the 96-well plate. Standard buffer and stop solutions were freshly prepared before running the assay. A pre-antibody-coated 96 well plate (provided with the kit) was used to transfer the test samples and control. The plate was mixed, sealed and incubated for 1 hour at 37° C. All the wells were washed after removing sample solutions, 3 times (300 μl) with washing buffer. 100 ul of antibody-POD conjugate solution was added into the wells. Plate was mixed, sealed and incubated for one hour at 37° C. Solutions were removed and the wells were washed 3 times with washing buffer. All the wells were completely emptied at the end of washing from any liquid. 100 μl of substrate solution (hydrogen peroxide and tetramethylbenzidine in a buffered solution) was added to each well and the plate was incubated at room temperature for 15 minutes. 100 μl of stop solution (freshly prepared 1N H2SO4) was added to each well in the same order as substrate. The plate was gently mixed and absorbance was read at 450 nm.

stratum corneum = assay: Dansyl chloride cell renewal study in healthy female volunteers; assay type: in vivo, human
Source text: The stratum corneum renewal time is the time taken for the whole thickness of the stratum corneum to be exfoliated and replaced by new cells from the dividing epidermis. This renewal time is a fundamental indicator of skin health. […] See Jansen L H, Hojyo-Tomoko M T, Kligman A M., Improved fluorescence staining technique for estimating turnover of the human stratum corneum, Br J Dermatol., 90, 9-12, 1974; Ridge B D, Batt M D, Palmer H E, Jarrett A, The dansyl chloride technique for stratum corneum renewal as an indicator of changes in epidermal mitotic activity following topical treatment., Br J Dermatol., 118, 167-74, 1988; Grove G L, Kligman A M, Age-associated changes in human epidermal cell renewal., J Geron., 38, 137-142, 1983. The time required for the dye to disappear is therefore an indication of the turnover time of the stratum corneum. Therefore, any differences in the time required for the dye to disappear from treated and non-treated sites can be considered to be an expression of that product's ability to enhance epidermal renewal.
A dansyl chloride cell renewal study was conducted in healthy female volunteers ranging from 43-64 years of age. The study consisted of a two-week treatment period during which time the products were applied topically twice daily, including on weekend days, to the test sites. The area of application was designated, approximately 5 cm×10 cm on the upper inner arm. The other arm served as a control with no product application. […] Eight females received jasmonic acid and seven females received gibberellic acid.
The time required for a marker dye to disappear was used as the measure of cell renewal rate.

mucin-4 (MUC-4) = assay: RT-PCR expression assay in ME-180 cells: mucin-4; assay type: cell-based, human; settings: for MUC-4 expression: 100 nM vitamin A; for mucin-4 expression: 1 μM vitamin E, 24 hours
Procedure: (§1) RNA Extraction from ME-180 cells. ME-180 cells were plated at 2×10^5 cells per T75 flask (15 mL total volume) and were allowed to propagate for four days. On day four, the media was removed. Fifteen mL of McCoy's SA media with or without 10% FBS containing 0 or 1 μM vitamin E were added to ME-180 cells in duplicate. ME-180 cells were incubated with these solutions for 24 hours. The media was removed, and 1500 μL of lysis buffer was added to the flasks. The cells were scraped off of the flask with a cell scraper. The RNA was isolated using the Ambion RNAqueous kit according to the manufacturer's instructions. Precipitated RNA was resuspended in DEPC-treated water with 1 μL of RNase inhibitor.
(§2) Reverse Transcription of RNA. Approximately 7 μL of RNA was incubated with 3 μL of primer at 80° C. for 10 minutes then immediately placed on ice. A master mix containing 4 μL DEPC water, 4 μL 5× reaction buffer, 1 μL dNTPs, 1 μL of RNase inhibitor, and 1 μL of reverse transcriptase was made for the reactions. Ten μL of master mix was added to the RNA/primer solution and placed at 42° C. for 2 hours. The resulting cDNA was incubated with 3.5 μL of NaOH solution at 70° C. for 10 minutes to hydrolyze the remaining RNA. Five μL of 0.5M Tris/EDTA was added to neutralize the solution. To precipitate the cDNA, 125 μL of 3M NH4OAc, 5 μL of linear polyacrylamide, and 700 μL of absolute ethanol were added. The solutions were vortexed and placed at −20° C. overnight. Samples were centrifuged at 14000 rpm at 4° C. for 30 minutes. The ethanol was removed, and the samples were allowed to dry for 10 minutes. The cDNA was resuspended in 10-12 μL of PCR grade water.
Polymerase Chain Reaction (PCR). A master mix using the Advantage 2 PCR kit (Ambion) was made for the PCR reactions containing 37-38 μL of PCR grade water, 5 μL of 10×PCR buffer, 1 μL of dNTPs, 1 μL of β-actin primers (10 μM, optional control), and 2 μL of test primers (10 μM, P2Y2, or Mucin-4 (MUC-4)). Two microliters of cDNA and […] of DNA polymerase were added. Cycling conditions were as follows: 5 min at 95° C.; 25-30 cycles (30 sec at 95° C., 1 min at 65° C., 3 min at 68° C.); 5 min at 68° C.
RNA was isolated (as described above) from ME-180 cervical cells treated with 0 nM or 100 nm vitamin A in the absence of serum. The RNA was reverse transcribed to form cDNA, and PCR techniques (as described above) were used to determine the effect of vitamin A on the expression of mucin-4 (MUC-4).

P2Y2 receptor gene = assay: RT-PCR expression assay in ME-180 cells: P2Y2; assay type: cell-based, human
Procedure: as §1, §2
Polymerase Chain Reaction (PCR). A master mix using the Advantage 2 PCR kit (Ambion) was made for the PCR reactions containing 37-38 μL of PCR grade water, 5 μL of 10×PCR buffer, 1 μL of dNTPs, 1 μL of β-actin primers (10 μM, optional control), and 2 μL of test primers (10 μM, P2Y2, or Mucin-4 (MUC-4)). Two microliters of cDNA and […] of DNA polymerase were added. […]

[3] = tested on: vascular endothelial growth factor (VEGF); assay: RT-PCR expression assay in ME-180 cells: VEGF; assay type: cell-based, human
[4] = tested on: estrogen receptor alpha (ER-α); assay: RT-PCR expression assay in ME-180 cells: ER-α; assay type: cell-based, human; settings: 100 nM vitamin A, no serum, 4, 8 and 16 hours
Procedure: Cell samples exposed to vitamin A in the absence of serum were also tested for expression of other genes that may also affect atrophic vaginitis. Using primers designed to amplify the estrogen receptor alpha (ER-α) gene, PCR was performed using the RNA samples from cells starved of serum. The ER-α product (650 bp) was visible in the control (FIG. 4, lane 2), where the template was cDNA from ME-180 cells cultured in the presence of serum. […] However, in the samples that were exposed to 100 nM vitamin A but no serum for 4, 8, and 16 hours, the […] gene was expressed (Lanes 4-6, respectively). […] Increasing the amount of estrogen receptors on epithelial cells in the genital tract may increase the probability that a receptor will be activated by estrogen.

DTR = assay: RT-PCR expression assay in ME-180 cells: DTR; assay type: cell-based, human; settings: 1 μM vitamin E, 24 hours, absence of serum
[5] = 1 μM vitamin E, 24 hours, absence of serum

CC1=C(/C=C/C(C)=C\C=C\C(C)=C\C(=O)O)C(C)(C)CCC1 [9-cis-retinoic acid]
effect on ME-180 cell growth (ME-180 cells): little effect

CC1=C(/C=C/C(C)=C/C=C/C(C)=C\C(=O)O)C(C)(C)CCC1 [13-cis-retinoic acid]
effect on ME-180 cell growth (ME-180 cells): little effect | ME-180 cell growth vs negative control (FIG. 2) (ME-180 cells): did not grow as well as the negative control | toxicity to ME-180 cells (ME-180 cells; micromolar concentrations): toxic

C=C1C[C@]23C[C@@]1(O)CC[C@H]2[C@@]12C=C[C@H](O)[C@@](C)(C(=O)O1)[C@H]2[C@@H]3C(=O)O [gibberellic acid, Gibberellin A3]
cell proliferating activity on human keratinocytes (summary in words) (human skin keratinocytes): strong cell proliferating activity | collagen production in human fibroblasts (summary in words) [1]: stimulate collagen production | fibronectin production in human fibroblasts (summary in words) [2]: effective | skin irritation or redness (stratum corneum; 0.25% topical twice daily, two weeks, all study volunteers): no visible sign of any skin irritation or redness | RENEWAL, time for cell renewal of treated skin (stratum corneum; individual patients (one value per patient #), 0.25% in hyaluronic acid (0.5% aqueous solution), topical twice daily, upper inner arm, listed as GA): 14 Days (2×) and 12 Days (2×) and 19 Days and 17 Days and 21 Days | faster cell renewal rate over control (stratum corneum; overall, 0.25% topical, vs untreated arm): 20% | reduction in time required for cell renewal vs untreated control (stratum corneum; vs volunteers' control without treatment): about 20%

CC1=C(/C=C/C(C)=C/C=C/C(C)=C/C(=O)O)C(C)(C)CCC1 [trans-retinoic acid]
toxicity (conclusion of the ME-180 experiments) (ME-180 cells): nontoxic | ME-180 cell growth compared with other agents or unexposed control (ME-180 cells; 1 nM to 100 nM experiment): growing slightly faster | effect on ME-180 cell growth (ME-180 cells): little effect | ME-180 cell growth vs negative control (FIG. 2) (ME-180 cells): more cells were present | MUC-4 expression (mucin-4 (MUC-4); absence of serum, 4 hours or 8 hours): detectable | MUC-4 expression (mucin-4 (MUC-4); absence of serum, 16 hours): decreases but is still detectable | P2Y2 expression (P2Y2 receptor gene; 100 nM vitamin A, in the presence and in the absence of serum): increase | VEGF expression ([3]; 100 nM vitamin A): increased | ER-α expression [4]: expressed; also recorded: increase

vitamin E
ME-180 cell growth (ME-180 cells; 100 nM vitamin E, vs negative control): not effected | ME-180 cell growth (ME-180 cells; 1 μM vitamin E, vs negative control): enhanced | ME-180 cell growth (ME-180 cells; 10 μM vitamin E, ethanol control also showed no growth): inhibited | mucin-4 expression (mucin-4 (MUC-4); absence of serum): increases; also recorded: significantly increased | mucin-4 expression (mucin-4 (MUC-4); presence of serum): no significant changes | P2Y2 expression (P2Y2 receptor gene; [5]): no observable difference | P2Y2 expression (P2Y2 receptor gene; 1 μM vitamin E, 24 hours, presence of serum): no significant changes | VEGF expression [3, 5]: no observable difference | DTR expression (DTR): no observable difference
